Literature values in patent publication EP4092126A1, “A METHOD OF ENZYMATIC REDUCTION OF THE OXIDIZED NICOTINAMIDE ADENINE DINUCLEOTIDE AND CARBOXYLIC ACIDS” (priority 2021, dated 2022).
Read-outs that look alike come from different tables or passages of the source.

Experiments:
[1] = target: [NiFe] dehydrogenase from Ralstonia eutropha (Cupriavidus necator, UniProt P22317+P22320)
[2] = test system: [NiFe] dehydrogenase from Ralstonia eutropha; details: same Km expressed as per cent H2
[3] = target: T1, phosphine dehydrogenase (PTDH) (Stutzerimonas stutzeri, UniProt O69054); details: read-out: Km (NAD^+)
T1 sequence (O69054 1-336): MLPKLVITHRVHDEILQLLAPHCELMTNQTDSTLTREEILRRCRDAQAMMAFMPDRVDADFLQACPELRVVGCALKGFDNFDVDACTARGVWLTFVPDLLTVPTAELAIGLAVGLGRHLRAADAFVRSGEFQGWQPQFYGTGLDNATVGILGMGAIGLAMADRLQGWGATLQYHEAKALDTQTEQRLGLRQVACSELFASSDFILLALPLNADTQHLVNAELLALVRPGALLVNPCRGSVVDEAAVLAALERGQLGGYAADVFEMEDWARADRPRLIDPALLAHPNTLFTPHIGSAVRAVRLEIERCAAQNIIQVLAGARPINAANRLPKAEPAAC

AOR = target: T2, AOR (Aromatoleum aromaticum, UniProt Q5P142+Q5P143); details: 1 mM benzaldehyde, pH 8.0, 28°C, anaerobic; read-out: Km versus NAD^+
T2 sequence (Q5P143 1-616): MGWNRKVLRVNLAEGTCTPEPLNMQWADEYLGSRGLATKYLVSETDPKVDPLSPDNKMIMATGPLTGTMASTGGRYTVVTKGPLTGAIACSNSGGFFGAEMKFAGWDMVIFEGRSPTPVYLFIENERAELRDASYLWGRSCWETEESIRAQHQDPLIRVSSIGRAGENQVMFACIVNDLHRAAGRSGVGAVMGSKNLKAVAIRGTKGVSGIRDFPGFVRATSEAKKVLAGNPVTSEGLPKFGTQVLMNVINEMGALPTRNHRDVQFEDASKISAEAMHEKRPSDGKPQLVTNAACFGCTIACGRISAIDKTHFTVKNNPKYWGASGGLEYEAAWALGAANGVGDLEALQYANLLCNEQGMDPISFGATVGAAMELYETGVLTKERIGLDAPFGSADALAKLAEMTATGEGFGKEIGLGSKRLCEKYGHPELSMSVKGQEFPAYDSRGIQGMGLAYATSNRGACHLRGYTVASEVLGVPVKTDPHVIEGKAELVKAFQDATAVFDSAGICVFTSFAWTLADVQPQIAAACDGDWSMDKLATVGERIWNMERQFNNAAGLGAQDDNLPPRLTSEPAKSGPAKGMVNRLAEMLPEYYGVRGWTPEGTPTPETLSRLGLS
T2 sequence (Q5P142 1-424): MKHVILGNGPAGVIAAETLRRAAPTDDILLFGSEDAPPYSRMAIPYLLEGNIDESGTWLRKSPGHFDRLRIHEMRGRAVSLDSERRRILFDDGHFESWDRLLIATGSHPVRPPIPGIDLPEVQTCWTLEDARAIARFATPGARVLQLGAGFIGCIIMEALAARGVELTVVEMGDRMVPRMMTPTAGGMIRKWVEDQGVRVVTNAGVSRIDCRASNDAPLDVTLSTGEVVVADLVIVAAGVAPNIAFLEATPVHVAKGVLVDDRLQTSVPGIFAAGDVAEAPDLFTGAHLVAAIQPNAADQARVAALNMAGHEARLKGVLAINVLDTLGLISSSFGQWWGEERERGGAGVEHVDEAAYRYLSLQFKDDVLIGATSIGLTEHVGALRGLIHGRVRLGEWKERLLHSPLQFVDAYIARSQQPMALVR
T2 sequence (Q5P144 1-158 partner): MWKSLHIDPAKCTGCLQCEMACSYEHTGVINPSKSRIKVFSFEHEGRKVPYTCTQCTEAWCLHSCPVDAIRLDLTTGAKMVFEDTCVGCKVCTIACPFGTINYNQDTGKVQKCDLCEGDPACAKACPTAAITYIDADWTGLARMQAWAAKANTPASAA

[4] = test system: tungsten aldehyde oxidoreductase (AOR) from A. aromaticum; details: 1 mM benzaldehyde, re-oxidized with NAD+, pH 8.0, 28°C, anaerobic conditions
[5] = target: AOR enzyme from Thermococcus strain ES-1; details: reducing acetic acid to acetaldehyde with reduced methyl viologen

Chain of [NiFe] dehydrogenase from Ralstonia eutropha (Cupriavidus necator, UniProt P22317+P22320) (P22318 whole entry): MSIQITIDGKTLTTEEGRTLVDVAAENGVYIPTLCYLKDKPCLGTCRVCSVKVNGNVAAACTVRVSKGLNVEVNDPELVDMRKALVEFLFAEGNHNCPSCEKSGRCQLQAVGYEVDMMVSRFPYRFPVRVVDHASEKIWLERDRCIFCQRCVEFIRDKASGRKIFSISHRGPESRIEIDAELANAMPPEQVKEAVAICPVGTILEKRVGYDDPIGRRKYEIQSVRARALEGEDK
Chain of [NiFe] dehydrogenase from Ralstonia eutropha (Cupriavidus necator, UniProt P22317+P22320) (P22320 1-464): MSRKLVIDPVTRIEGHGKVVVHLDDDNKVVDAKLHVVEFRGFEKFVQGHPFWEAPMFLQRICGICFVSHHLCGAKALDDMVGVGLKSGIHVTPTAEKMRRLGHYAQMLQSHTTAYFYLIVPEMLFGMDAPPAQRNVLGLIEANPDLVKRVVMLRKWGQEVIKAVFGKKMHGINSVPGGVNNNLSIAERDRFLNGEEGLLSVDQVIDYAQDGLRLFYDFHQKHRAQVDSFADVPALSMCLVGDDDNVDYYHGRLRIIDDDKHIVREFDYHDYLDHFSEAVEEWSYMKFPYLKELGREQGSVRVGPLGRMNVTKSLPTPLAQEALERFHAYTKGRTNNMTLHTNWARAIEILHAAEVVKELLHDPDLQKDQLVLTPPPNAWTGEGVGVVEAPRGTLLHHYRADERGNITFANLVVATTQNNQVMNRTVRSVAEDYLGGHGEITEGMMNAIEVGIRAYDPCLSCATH
Chain of [NiFe] dehydrogenase from Ralstonia eutropha (Cupriavidus necator, UniProt P22317+P22320) (P22319 whole entry, further chain): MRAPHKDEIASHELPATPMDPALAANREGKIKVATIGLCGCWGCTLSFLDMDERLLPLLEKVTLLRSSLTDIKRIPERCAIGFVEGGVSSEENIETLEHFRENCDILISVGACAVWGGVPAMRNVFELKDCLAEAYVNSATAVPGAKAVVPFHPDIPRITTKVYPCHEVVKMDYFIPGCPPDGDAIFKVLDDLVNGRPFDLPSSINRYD
Chain of [NiFe] dehydrogenase from Ralstonia eutropha (Cupriavidus necator, UniProt P22317+P22320) (P22317 whole entry): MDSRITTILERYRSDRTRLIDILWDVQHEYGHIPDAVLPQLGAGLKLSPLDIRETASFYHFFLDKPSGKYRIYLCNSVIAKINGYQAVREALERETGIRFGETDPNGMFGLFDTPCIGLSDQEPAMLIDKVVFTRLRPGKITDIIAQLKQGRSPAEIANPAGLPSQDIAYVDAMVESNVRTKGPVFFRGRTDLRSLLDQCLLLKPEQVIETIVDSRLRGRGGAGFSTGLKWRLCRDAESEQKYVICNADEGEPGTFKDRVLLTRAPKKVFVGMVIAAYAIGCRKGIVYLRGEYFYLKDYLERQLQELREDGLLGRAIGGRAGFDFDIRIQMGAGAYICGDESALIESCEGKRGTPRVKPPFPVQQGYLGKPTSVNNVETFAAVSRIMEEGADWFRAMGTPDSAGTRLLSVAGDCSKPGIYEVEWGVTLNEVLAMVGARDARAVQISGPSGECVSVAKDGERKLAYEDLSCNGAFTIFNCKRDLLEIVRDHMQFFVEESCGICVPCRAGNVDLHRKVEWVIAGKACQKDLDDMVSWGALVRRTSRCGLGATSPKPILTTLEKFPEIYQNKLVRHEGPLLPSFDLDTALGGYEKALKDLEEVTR

[HH] [hydrogen]
Km ([1]; 1.4-5% H2, read-out: Km (hydrogen)): 11 to 37 µM
Ki ([1]; hyperbaric conditions, read-out: Ki (inhibition by H2)): 1460 µM

hydrogen [H2]
Km (hydrogen), as H2 content [2]: 1.4-5 % H2

NC(=O)c1ccc[n+]([C@@H]2O[C@H](COP(=O)([O-])OP(=O)(O)OC[C@H]3O[C@@H](n4cnc5c(N)ncnc54)[C@H](O)[C@@H]3O)[C@@H](O)[C@H]2O)c1 [NAD^+, nicotinamide adenine dinucleotide]
Km [3]: 53 µM
Km (AOR): 63 µM
Km ([1]; read-out: Km (NAD^+)): 560 µM

NC(=O)c1ccc[n+]([C@@H]2O[C@H](COP(=O)([O-])OP(=O)(O)OC[C@H]3O[C@@H](n4cnc5c(N)ncnc54)[C@H](O)[C@@H]3O)[C@@H](O)[C@H]2O)c1 [NAD+, nicotinamide adenine dinucleotide]
maximum observed reaction rate, Vmax [4]: 12.5 mM/min/mg

CC(=O)O [acetic acid]
kinetic rate constant (kcat) [5]: 1.6 turnovers of the catalyzed reaction per second
